Test results as given in PMC1764434 (PLoS Clinical Trials, 2007).
“Also recorded” adds a separate entry of the source. Like-named read-outs stand apart in the source and are kept apart here.

Tests used:
healthy volunteers [1] = assay: Post-dose clinical and laboratory follow-up (hematology, chemistry, organ toxicity); format: in vivo, human
P. cynomolgi = conditions: cited from earlier work
[2] = cited from earlier work
[3] = Blood pharmacokinetics after oral dosing (fluorescence HPLC, noncompartmental WinNonlin model); format: in vivo, human; conditions: for Cmax / Vd/F / MRT / Tmax / half-life / AUC: human, whole blood; for Cmax: read-out: Cmax; for MRT: read-out: MRT (converted); for AUC: po
Procedure: Study drugs were administered in the GCRC on an empty stomach between 8 and 9 AM the morning after admission (after fasting for ≥ 10 h).

[4] = tested on: CQ-resistant P. falciparum; conditions: CQ-resistant P. falciparum in the squirrel monkey; cited from earlier work
QT interval = assay: Effects on the QT interval (ECG and Holter recordings, Bazett correction); conditions: for QTc interval, Baseline: before dosing
Procedure: The effects of the study drugs on the QT interval were assessed by comparing QT intervals before dosing with QT intervals 4 h after dosing, and at the 2 wk follow-up. […] QT intervals were measured manually and electronically (Rozinn Electronics, Glendale, New York, United States). […] Correction of the QT interval for heart rate (i.e., QTc) was performed using Bazett's formula [27].

animals = conditions: preclinical studies; cited from earlier work
[5] = tested on: CQ-resistant P. falciparum; conditions: cited from earlier work
healthy volunteers [6] = assay: Clinical adverse events (weekly diaries, blinded relatedness assessment), Phase I RCT; format: in vivo, human
Procedure: Adverse events (AEs) were recorded in weekly diaries provided to each volunteer. The relatedness of these AEs to the study drugs was assessed by two physicians (FM, CH) based on temporal association and biological plausibility using five categories: definitely not, unlikely, possibly, probably, and definitely related. The AEs reported in this manuscript include all AEs assessed as possibly, probably, or definitely related.
Quantitative data are presented as the mean ± standard deviation or as median and range, as appropriate. […] Due to a lack of normality, the nonparametric Mann-Whitney U test was used to compare independent samples; the Wilcoxon or Friedman test (whichever was appropriate) was used to compare repeated measures of the QTc interval. All statistical tests were two-sided with an α (significance level) of 0.05. Analyses were performed using the SPSS 11.0 statistical software (SPSS, Chicago, Illinois, United States). All analyses were based on allocation by intent-to-treat.

[7] = Urinary excretion and renal clearance (24-hour urine collections, days 1-3)
[8] = 2 wk follow-up, individual participant
[9] = 1750 mg, 1,750 mg oral over 3 d, median (range)
[10] = single oral 600 mg dose, median (range)
[11] = single oral 700 mg adjustment dose, median (range)
[12] = 1,750 mg AQ-13, 1,500 mg CQ, mean ± SD
[13] = 600/700 mg AQ-13, 600 mg CQ, mean ± SD
[14] = 1,500 mg CQ (n = 15) / 1,750 mg AQ-13 (n = 14)
[15] = 100, 300 mg doses, n = 16 per drug
[16] = 600/700 mg, AQ-13 n = 25, CQ n = 24
[17] = all doses combined, 63 volunteers per drug
[18] = days 1-3, 1,750 mg AQ-13 / 1,500 mg CQ

CCN(CC)CCCNc1ccnc2cc(Cl)ccc12 [AQ-13]
ALT in one participant with abnormal liver function tests (healthy volunteers [1]; [8]): 149 | AST in one participant with abnormal liver function tests (healthy volunteers [1]; [8]): 135 U/l | alkaline phosphatase in one participant with abnormal liver function tests (healthy volunteers [1]; [8]): 146 | bilirubin in one participant with abnormal liver function test (healthy volunteers [1]; [8]): 1.5 mg/dL | volunteers with mildly abnormal liver function tests (healthy volunteers [1]; 2 wk follow-up, AQ-13 100 and 300 mg doses, CQ 1,500 mg dose): two | hematologic or chemical toxicities on repeat laboratory testing (healthy volunteers [1]; 4 d after drug administration): no hematologic or chemical toxicities | organ toxicity (healthy volunteers [1]; any dose tested, inpatient exams, 2 and 4 wk follow-up): No hematologic, hepatic, renal, or other organ toxicity was observed; also recorded: no clinical evidence for end-organ toxicity | activity in vivo in monkey model (P. cynomolgi; P. cynomolgi in the rhesus monkey): active in vivo | activity in monkey models of human malaria compared with AQ-21 (P. cynomolgi; both monkey models, ref Cogswell, et al., unpublished data): more active | clearance in preclinical studies in comparison with CQ [2]: cleared more rapidly than CQ | oral bioavailability in comparison with CQ ([2]; rats and monkeys, GLP preclinical studies by SRI International): less than that of CQ | blood level one hour after dosing as % of Cmax ([3]; 600 mg oral dose): 52% | Cl/F ([3]; 1,750 mg oral over 3 d, median (range)): 14.0 (6.8–20.3) l/h | median oral clearance (range of medians across dose levels) ([3]; 600 and 1,500/1,750 mg doses): 14.0 to 14.7 L/h | Cmax ([3]; 1750 mg, 1,750 mg oral over 3 d (700+700+350 mg), median (range)): 3000 nM | Vd/F [3, 9]: 6660 L | MRT [3, 9]: 13.4 days | Tmax ([3]; 1750 mg, 1,750 mg oral over 3 d, median (range), read-out: Tmax): 1.14 days | half-life ([3]; 1750 mg, 1,750 mg oral over 3 d, median (range), read-out: t½ (converted)): 12.9 days | Tmax ([3]; oral, 1,750 mg AQ-13 / 1,500 mg CQ, 27–28 h after the first dose, read-out: time of peak blood concentration after the second dose): 0.125 to 0.167 days | AUC ([3]; 600 mg, single oral 600 mg dose, median (range), read-out: AUCw1 (partial AUC for week 1)): 71.8 µM·h | AUC ([3]; 600 mg, single oral 600 mg dose, median (range), read-out: AUCτ (total area under the curve)): 141 µM·h | AUC ([3]; 700 mg, single oral 700 mg adjustment dose, median (range), read-out: AUCw1): 96.3 µM·h | AUC ([3]; 700 mg, single oral 700 mg adjustment dose, median (range), read-out: AUCτ): 342 µM·h | AUC ([3]; 1750 mg, 1,750 mg oral over 3 d, median (range), read-out: AUCw1): 226 µM·h | AUC ([3]; 1750 mg, 1,750 mg oral over 3 d, median (range), read-out: AUCτ): 493 µM·h | Vd/F [3, 10]: 6710 L | Vd/F [3, 11]: 6830 L | MRT [3, 11]: 23.5 days | Tmax ([3]; single oral 700 mg adjustment dose, median (range), read-out: Tmax): 0.167 days | half-life ([3]; single oral 700 mg adjustment dose, median (range), read-out: t½ (converted)): 17.9 days | Cmax ([3]; single oral 600 mg dose (CQ base equivalent), median (range)): 1400 nM | MRT [3, 10]: 10.5 days | Tmax ([3]; single oral 600 mg dose, median (range), read-out: Tmax): 0.167 days | half-life ([3]; single oral 600 mg dose, median (range), read-out: t½ (terminal elimination half-life) (converted)): 14.3 days | Cmax [3, 11]: 1600 nM | linearity of pharmacokinetics ([3]; oral doses in healthy volunteers): linear pharmacokinetics | Cl/F (apparent oral clearance) [3, 10]: 14.7 (7.0–31.1) l/h | Cl/F [3, 11]: 11.8 (8.5–19.1) l/h | activity in vivo in monkey model [4]: active in vivo | mean QTc prolongation after the first dose (day 1) (QT interval; 1,500 mg CQ (first 600 mg dose) / 1,750 mg AQ-13 (first 700 mg dose)): 4 ms | additional QTc increase after the second dose (day 2) (QT interval; 1,500 mg CQ / 1,750 mg AQ-13): 6 ms | QTc interval, Baseline (QT interval; 1,750 mg AQ-13 (n = 13), 1,500 mg CQ (n = 14), mean ± SD): 397 ± 16 ms | QTc interval, 2 wk follow-up (QT interval; [12]): 402 ± 13 ms | QTc interval, 4–5 h post-dose (day 1) (QT interval; [12]): 401 ± 14 ms | QTc interval, 4–5 h post-dose (day 2) (QT interval; [12]): 407 ± 11 ms | QTc interval, 4–5 h post-dose (day 3) (QT interval; [12]): 400 ± 11 ms | mean QTc prolongation, females (QT interval; 1,750 mg AQ-13 / 1,500 mg CQ): 12 ms | mean increase in the QTc interval from baseline (QT interval; 1,750 mg AQ-13 / 1,500 mg CQ, 4 h after the second dose on day 2): 10 ms | QTc interval, Baseline (QT interval; 600/700 mg AQ-13 (n = 25), 600 mg CQ (n = 24), mean ± SD): 403 ± 17 ms | QTc interval, 2 wk follow-up (QT interval; [13]): 405 ± 18 ms | QTc interval, 4–5 h post-dose (day 1) (QT interval; [13]): 414 ± 17 ms | maximal prolongation of the QTc interval from baseline at the individual level (QT interval; 600/700 mg dose): 42 ms | maximal prolongation of the QTc interval from baseline at the individual level (QT interval; 1,500/1,750 mg dose): 35 ms | mean increase in the QTc interval from baseline, females (QT interval; 4 h after 600 mg CQ or 600/700 mg AQ-13): 18 ms | mean QTc interval change from baseline, males (QT interval; 4 h after 600 mg CQ or 600/700 mg AQ-13, not significant): 1 ms | mean increase in the QTc interval from baseline (QT interval; 4 h after 600 mg CQ or 600 or 700 mg AQ-13): 11 ms | arrhythmias or other cardiac AEs (QT interval; all doses): no arrhythmias or other cardiac AEs; also recorded: no cardiac AEs | toxicity in animals in comparison with CQ (animals): no differences in toxicity | activity against resistant malaria parasites in vitro [5]: active against resistant malaria parasites | related adverse events: None (healthy volunteers [6]; 10 mg dose, n = 8 per drug): 0 | Abdominal pain, number (%) (healthy volunteers [6]; [14]): 1 (7%) | Blurred vision, number (%) (healthy volunteers [6]; [14]): 2 (14%) | Diarrhea, number (%) (healthy volunteers [6]; [14]): 4 (29%) | Difficulty focusing/visual floating objects, number (%) (healthy volunteers [6]; [14]): 2 (14%) | Lightheadedness/Dizziness, number (%) (healthy volunteers [6]; [14]): 7 (50%) | Nausea, number (%) (healthy volunteers [6]; [14]): 5 (36%) | Vomiting, number (%) (healthy volunteers [6]; [14]): 2 (14%) | Weakness/fatigue, number (%) (healthy volunteers [6]; [14]): 2 (14%) | Headache, number (%) (healthy volunteers [6]; 1,500 mg CQ (n = 15) / 1,750 mg AQ-13 (n = 14) over 3 d): 5 (36%) | Headache, volunteers with related AE, number (%) (healthy volunteers [6]; [15]): 2 (12%) | Lightheadedness/Dizziness, number (%) (healthy volunteers [6]; [15]): 0 | Nausea, number (%) (healthy volunteers [6]; [15]): 1 (6%) | Abdominal pain, number (%) (healthy volunteers [6]; [16]): 2 (8%) | Diarrhea, number (%) (healthy volunteers [6]; [16]): 2 (8%) | Ear symptoms, number (%) (healthy volunteers [6]; [16]): 0 | Headache, number (%) (healthy volunteers [6]; [16]): 10 (40%) | Lightheadedness/Dizziness, number (%) (healthy volunteers [6]; [16]): 4 (16%) | Loss of appetite, number (%) (healthy volunteers [6]; [16]): 3 (12%) | Nausea, number (%) (healthy volunteers [6]; [16]): 2 (8%) | Vomiting, number (%) (healthy volunteers [6]; [16]): 2 (8%) | drug-related GI symptoms, number of reports (healthy volunteers [6]; all doses combined): 28 reports | drug-related lightheadedness/dizziness, volunteers/total (healthy volunteers [6]; [17]): 11/63 | volunteers reporting one or more GI symptoms/total (healthy volunteers [6]; [17]): 14/63 | amount of unchanged drug recovered from 24 hour urine collections [7, 18]: 443 µmol | unchanged drug recovered from 24 hour urine collections, % of total oral dose [7, 18]: 8.4% | CL renal ([7]; human, urine and whole blood, po, 1750 mg): 55 mL/min
